Measurements: US11034725B2, “Compositions and methods for treating cardiovascular disease” (Genentech, Inc., priority 2016, dated 2021)
Like-named read-outs stand apart in the source and are kept apart here. Bridge positions count the residues as written; N and C are the ends. Square brackets hold non-standard residues; d marks the D form. Peptide text beside a SMILES is read from it. * marks the point of attachment. hArg = N=C(N)NCCCC[C@H](N)C(=O)O; Pentanoyl = CCCCC(=O)*

Key:
His-EGF(A)-Fc = His-EGF(A)-Fc TR-FRET counterscreen
Procedure: The former was based on a TF-FRET assay to measure the association of the EGF(A) domain of the LDLR to PCSK9 (“PCSK9/EGF(A) binding assay”) whilst the latter was based on a TR-FRET assay to measure binding of Ab20 to PCSK9Δhelix (“PCSK9Δhelix/Ab20 binding assay”).
The ability of compounds to inhibit binding to PCSK9 was evaluated with a panel of time-resolved fluorescence resonance energy transfer (TR-FRET) binding assays. […] The PCSK9Δhelix/Ab20 binding assay evaluated the ability of compounds to compete with Ab20 for binding to the N-terminal groove region in a His-tagged, PCSK9Δhelix construct. […] Signal generation in the PCSK9 binding assays was dependent upon the binding interaction to bring into close proximity the His-tag on the PCSK9 and the Fc-tag on the ligand. Anti-His-APC was bound to the His-tag, and anti-Fc-europium was bound to the Fc-tag. When these two antibodies were in close proximity and were irradiated with light at 340 nm, the europium was excited and emitted energy at 615 nm. This energy was taken up by the APC and was emitted as light at 665 nm. Compounds that competed with the ligand reduced the energy transfer and thus the emission at 665 nm. In the His-EGFA-Fc molecule in the counterscreen, the two tags were always in close proximity, thus any reduction in emission at 665 nm was due to interference with the detection system.
Compounds were solubilized and dilutions were prepared in DMSO. […] The plate was centrifuged to mix the well contents and allowed to incubate for 30 min. […] The TR-FRET signal was read on a ViewLux reader (PerkinElmer) with excitation at 340 nm and emission at 615 and 665 nm with a 50-μs time delay between excitation and measurement of emission. The TR-FRET ratio was calculated as the fluorescence emission at 665 nm divided by the fluorescence emission at 615 nm. The normalized TR-FRET ratios were plotted as a function of the compound concentrations, and the IC50 values were determined using a 4-parameter logistic regression.
In black 1536-well assay plates (MaKO, Aurora® Microplates, Whitefish, Mont.), 40 nL of peptide in DMSO were preincubated with 2 μL His-tagged PCSK9 plus anti-His-allophycocyanin in assay buffer (50 mM Tris-HCl, pH 7.5, 150 mM NaCl, 2 mM CaCl2, 0.01% Tween®-20, 0.1% bovine gamma globulins, and protease inhibitor cocktail) for 30 min. Then 2 μL of Fc-tagged ligand and anti-Fc-europium in assay buffer were added and allowed to incubate for 2 h.

PCSK9Δhelix = molecular target: T1, PCSK9Δhelix (Homo sapiens, UniProt Q8NBP7); experiment: PCSK9Δhelix/Ab20 TR-FRET binding assay; settings: TR-FRET, read-out: PCSK9Δhelix/Ab20 IC50
T1 construct: Human PCSK9 construct M1-Q692 with an engineered TEV site (residue deletion Y166, R167); made in house; host or cells: CHO

PCSK9 = PCSK9 (Homo sapiens, UniProt Q8NBP7); experiment: PCSK9/EGF(A) TR-FRET binding assay; settings: TR-FRET, read-out: PCSK9/EGF(A) IC50
[1] = TR-FRET counterscreen, Table 8D, * = some inhibition at highest concentrations, not sufficient to fit an IC50
[2] = Table 8D, disulfide-cyclized extension peptides
[3] = TR-FRET counterscreen, Table 8E, additional compounds

T1 sequence (Q8NBP7 with tags, fused parts or gaps limits assumed): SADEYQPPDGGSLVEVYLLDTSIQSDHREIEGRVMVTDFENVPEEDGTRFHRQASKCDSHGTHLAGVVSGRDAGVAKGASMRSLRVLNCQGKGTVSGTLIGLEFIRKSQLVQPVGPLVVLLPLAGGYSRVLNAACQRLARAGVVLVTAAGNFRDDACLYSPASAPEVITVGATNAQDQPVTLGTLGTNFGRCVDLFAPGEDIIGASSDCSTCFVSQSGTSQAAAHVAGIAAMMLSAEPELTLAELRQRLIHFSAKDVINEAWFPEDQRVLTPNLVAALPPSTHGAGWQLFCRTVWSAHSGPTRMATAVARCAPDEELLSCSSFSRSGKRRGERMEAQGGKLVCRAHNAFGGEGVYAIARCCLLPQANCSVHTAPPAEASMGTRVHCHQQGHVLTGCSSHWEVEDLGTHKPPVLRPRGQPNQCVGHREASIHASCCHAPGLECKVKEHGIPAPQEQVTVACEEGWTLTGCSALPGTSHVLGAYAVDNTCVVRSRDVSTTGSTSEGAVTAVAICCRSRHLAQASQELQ
T1 sequence (Q8NBP7 31-152 partner limits assumed): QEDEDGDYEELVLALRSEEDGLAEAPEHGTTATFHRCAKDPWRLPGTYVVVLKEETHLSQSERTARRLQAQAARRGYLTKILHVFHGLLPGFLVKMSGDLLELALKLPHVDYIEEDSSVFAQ
Sequence of PCSK9 (Q8NBP7 153-692): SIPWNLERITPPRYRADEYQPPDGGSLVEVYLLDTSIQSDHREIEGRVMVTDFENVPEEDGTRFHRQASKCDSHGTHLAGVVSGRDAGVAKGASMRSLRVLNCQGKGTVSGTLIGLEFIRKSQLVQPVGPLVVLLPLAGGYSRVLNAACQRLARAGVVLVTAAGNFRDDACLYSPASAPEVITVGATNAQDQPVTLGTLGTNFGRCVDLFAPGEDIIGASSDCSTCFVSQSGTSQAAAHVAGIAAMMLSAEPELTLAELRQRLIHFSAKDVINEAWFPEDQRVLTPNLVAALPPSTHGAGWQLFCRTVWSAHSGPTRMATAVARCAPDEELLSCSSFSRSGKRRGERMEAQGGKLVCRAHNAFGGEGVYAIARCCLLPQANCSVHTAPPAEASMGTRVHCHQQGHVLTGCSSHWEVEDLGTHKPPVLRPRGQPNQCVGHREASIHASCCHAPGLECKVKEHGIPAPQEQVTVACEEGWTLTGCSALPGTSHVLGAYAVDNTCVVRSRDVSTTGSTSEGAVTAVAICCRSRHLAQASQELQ
Sequence of PCSK9 (Q8NBP7 31-152 partner limits assumed): as the sequence (Q8NBP7 31-152 partner limits assumed) above

Row | Compound | IC50 (His-EGF(A)-Fc; [1]) [µM] | IC50 (PCSK9Δhelix; [2]) [µM] | IC50 (PCSK9; [2]) [µM] | IC50 (His-EGF(A)-Fc; [3]) [µM] | IC50 (PCSK9Δhelix; Table 8E, additional compounds) [µM] | IC50 (PCSK9; Table 8E, additional compounds) [µM] | other results
1 | CC[C@H](C)[C@@H]1NC(=O)[C@H](CCCNC(=N)N)NC(=O)[C@H](CCC(N)=O)NC(=O)[C@H](CC(C)C)NC(=O)[C@H](CC(N)=O)NC(=O)[C@H](Cc2c[nH]c3ccccc23)NC(=O)[C@@H]2CCCN2C(=O)[C@@H](CC(C)C)NC(=O)[C@H](CCCNC(=N)N)NC(=O)[C@@H](NC(C)=O)CSSC[C@@H](C(N)=O)NC(=O)[C@@H]2CCCN2C(=O)[C@H](CC(C)C)NC(=O)CNC1=O [Compound 108] (Ac-CR[dL]PWNLQRIGLPC-NH2; disulfide 1-14) | > 50 | 28.2 | > 50 | – | – | – | –
2 | Ac-GLMPWNLVRIGLLR-NH2 [Compound 124] | – | – | – | ≥ 50 | 3.9 | ≥ 50 | –
3 | CCCCC(=O)N[C@@H](Cc1c[nH]c2ccccc12)C(=O)N[C@@H](CC(N)=O)C(=O)N[C@@H](CC(C)C)C(=O)N[C@H](C(=O)N[C@@H](CCCNC(=N)N)C(=O)N[C@H](C(=O)NCC(=O)N[C@@H](CC(C)C)C(=O)N[C@H](C(=O)N[C@@H](CCCNC(=N)N)C(=O)O)[C@@H](C)O)[C@@H](C)CC)C(C)C [Compound 176] (Pentanoyl-WNLVRIGLTR-OH) | – | – | – | ≥ 50 | 18 | ≥ 50 | –
4 | CC[C@H](C)[C@@H]1NC(=O)[C@H](CCCNC(=N)N)NC(=O)[C@H](CCCCN)NC(=O)[C@H](CC(C)C)NC(=O)[C@H](CC(N)=O)NC(=O)[C@H](Cc2c[nH]c3ccccc23)NC(=O)[C@H](CC(C)C)NC(=O)[C@@H](NC(=O)[C@@H](N)Cc2c[nH]c3ccccc23)CSSC[C@@H](C(=O)N[C@@H](Cc2c[nH]c3ccccc23)C(=O)N[C@@H](Cc2ccccc2)C(N)=O)NC(=O)[C@H](CCC(N)=O)NC(=O)[C@H](CO)NC(=O)CNC1=O [Compound 89] (H-WCLWNLKRIGSQCWF-NH2; disulfide 2-13) | 38.4 | 2.98 | 6.9 | – | – | – | –
5 | CCCCC(=O)N[C@@H](Cc1c[nH]c2ccccc12)C(=O)N[C@@H](CC(N)=O)C(=O)N[C@@H](CC(C)C)C(=O)N[C@H](C(=O)N[C@@H](CCCNC(=N)N)C(=O)N[C@H](C(=O)NCC(=O)N[C@@H](CC(C)C)C(=O)N[C@@H](C)C(=O)N[C@@H](CCCNC(=N)N)C(N)=O)[C@@H](C)CC)C(C)C [Compound 180] (Pentanoyl-WNLVRIGLAR-NH2) | – | – | – | ≥ 50 | 12 | ≥ 50 | –
6 | CC[C@H](C)[C@@H]1NC(=O)[C@H](CCCNC(=N)N)NC(=O)[C@H](CCC(N)=O)NC(=O)[C@H](CC(C)C)NC(=O)[C@H](CC(N)=O)NC(=O)[C@H](Cc2c[nH]c3ccccc23)NC(=O)[C@H]2CCCN2C(=O)[C@H](CC(C)C)NC(=O)[C@H](CCCNC(=N)N)NC(=O)[C@@H](NC(C)=O)CSSC[C@@H](C(N)=O)NC(=O)[C@@H]2CCCN2C(=O)[C@H](CC(C)C)NC(=O)CNC1=O [Compound 107] (Ac-CRL[dP]WNLQRIGLPC-NH2; disulfide 1-14) | > 50 | > 50 | > 50 | – | – | – | –
7 | Ac-DLMPANLVRIGLLR-NH2 [Compound 41] | – | – | – | – | – | – | IC50 (His-EGF(A)-Fc; counterscreen, Example 7): > 50 µM; IC50 (PCSK9Δhelix; Example 7): > 49.5 µM; IC50 (PCSK9; Example 7): > 50 µM
8 | Ac-WNLVRIGL-NH2 [Compound 120] | – | – | – | – | – | – | IC50 (His-EGF(A)-Fc; counterscreen, Example 7): > 50 µM; IC50 (PCSK9Δhelix; Example 7): ≥ 49.5 µM; IC50 (PCSK9; Example 7): > 50 µM
9 | CC[C@H](C)[C@H](NC(=O)[C@H](CCCCNC(=N)N)NC(=O)[C@H](CCCCN)NC(=O)[C@H](CC(C)C)NC(=O)[C@H](CC(N)=O)NC(=O)[C@H](Cc1c[nH]c2ccccc12)NC(=O)CNC(=O)[C@@H]1CCCN1C(=O)[C@H](Cc1ccccc1)NC(=O)[C@H](C)NC(=O)[C@H](Cc1ccccc1)NC(=O)[C@H](CO)NC(C)=O)C(=O)NCC(=O)N[C@@H](CC(C)C)C(=O)N[C@@H](CC(C)C)C(=O)N[C@@H](CCCNC(=N)N)C(N)=O [Compound 232] (Ac-SFAFPGWNLK[hArg]IGLLR-NH2) | – | – | – | ≥ 50 | 13 | 0.93 | –
